The text below walks through data of ChEMBL document CHEMBL1201862, “PubChem BioAssay data set” (2004).

Some test systems named below: ACHN; 786-0; OVCAR-4; COLO 205; HOP-62; SK-MEL-5; IGROV-1; TK-10; A498; HT-29; HL-60; A549; DU-145; MDA-MB-231; HCC 2998; NCI-H226; HCT-15; SK-OV-3; SNB-75; T47D.
Experiment in all cases: NCI anticancer screen, dose series, 48 h

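These data come from cells grown in 96-well plates and exposed to compound for 48 hours at five concentrations. Abbreviation: GI50, concentration required for 50% inhibition of growth.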 Active and inactive are the calls of the source. Rule as the data show it: active = GI50 up to about 1.1 µM and inactive = higher.

`COc1ccc(SC(C)(SC)c2ccccn2)c(OC)n1` (stereo not given): the GI50 is > 100 µM (inactive) in the assay with ACHN; 66.7 µM (inactive) in the assay on 786-0; 83.4 µM (inactive) in the assay on OVCAR-4; 31.6 µM (inactive) with COLO 205; > 100 µM (inactive) in the assay on HOP-62; 37.4 µM (inactive) with SK-MEL-5. Besides, the GI50 is > 100 µM (inactive) in the assay with IGROV-1; > 100 µM (inactive) in the assay with TK-10; 53.3 µM (inactive) with A498; 42.7 µM (inactive) in the assay on HT-29; 3.24 µM (inactive) in the assay with HL-60; 79.4 µM (inactive) with A549. The GI50 in the assay on DU-145 is > 100 µM (inactive); with MDA-MB-231, > 100 µM (inactive); in the assay with HCC 2998, > 100 µM (inactive); in the assay on NCI-H226 it was 42.5 µM (inactive); in the assay on HCT-15 it was 54.7 µM.

As for `O=C1C/C(Br)=C\c2ccccc2-c2ccccc21`, the GI50 in the assay on ACHN is 1.91 µM (inactive); in the assay with 786-0, 1.4 µM (inactive); in the assay with OVCAR-4 it was 2.53 µM (inactive); in the assay on COLO 205, 3.76 µM (inactive); in the assay on HOP-62 it was 3.05 µM (inactive); with SK-MEL-5, 5.4 µM (inactive). Besides, the GI50 was 3.03 µM (inactive) with SK-OV-3; 3.1 µM (inactive) with IGROV-1; 4.78 µM (inactive) in the assay on TK-10; 8.51 µM (inactive) in the assay on A498; 2.07 µM (inactive) with HT-29; 1.71 µM (inactive) with HL-60. The GI50 is 8.26 µM (inactive) in the assay with A549; 7.14 µM (inactive) in the assay with HCC 2998; 2.66 µM (inactive) with NCI-H226; 1.56 µM with HCT-15; 2.26 µM (inactive) in the assay with SNB-75.

`CN(/N=C/C=N/N(C)C1=NCCN1)C1=NCCN1`: the GI50 with ACHN, in the assay with 786-0, with OVCAR-4, in the assay with COLO 205, with T47D and with HOP-62 was > 100 µM (inactive) throughout. Besides, the GI50 in the assay on SK-MEL-5, with SK-OV-3, in the assay with IGROV-1, in the assay on TK-10, in the assay on HT-29 and in the assay on A549 was > 100 µM (inactive) in each case. Further, the GI50 was > 100 µM (inactive) with DU-145; > 100 µM (inactive) in the assay on MDA-MB-231; > 100 µM (inactive) with HCC 2998; > 100 µM (inactive) in the assay on NCI-H226; greater than 100 µM in the assay with HCT-15; > 100 µM (inactive) with SNB-75.

`O=C(CCC(=O)Nc1ccc(Cl)cc1)CC(=O)c1ccc2ccccc2c1`: the GI50 in the assay on ACHN, with 786-0, with OVCAR-4, in the assay with COLO 205, in the assay on HOP-62 and with SK-MEL-5 was > 100 µM (inactive) in each case. The GI50 with SK-OV-3, in the assay with IGROV-1, with TK-10, with A498, with HT-29 and with HL-60 was > 100 µM (inactive) in each case. Also, the GI50 in the assay with A549 is > 100 µM (inactive); in the assay on HCC 2998 it was > 100 µM (inactive); in the assay on NCI-H226 it was > 100 µM (inactive); in the assay on HCT-15, greater than 100 µM; with SNB-75 it was > 100 µM (inactive).

With `COc1cc2[nH]c(=O)c3cc(C)cc4c(Cl)nc(c1OC)c2c43`, the GI50 in the assay on ACHN was 40.6 µM (inactive); in the assay with 786-0, 20 µM (inactive); in the assay on OVCAR-4, > 100 µM (inactive); in the assay with COLO 205 it was 72.6 µM (inactive); with HOP-62, 23.6 µM (inactive); with SK-MEL-5, 55.6 µM (inactive). Moreover, the GI50 in the assay with SK-OV-3 is 37.9 µM (inactive); with IGROV-1 it was 67.8 µM (inactive); in the assay on TK-10, 31.2 µM (inactive); in the assay with HT-29, 89.9 µM (inactive); in the assay on HL-60, 18.8 µM (inactive); in the assay with A549 it was 45.7 µM (inactive). Moreover, the GI50 in the assay on DU-145 is 61.8 µM (inactive); in the assay on MDA-MB-231, 76.6 µM (inactive); in the assay on HCC 2998, > 100 µM (inactive); in the assay on NCI-H226 it was 45.7 µM (inactive); in the assay with HCT-15, greater than 100 µM; in the assay with SNB-75, 22.9 µM (inactive).

Regarding `Cc1ccc(C2=NO[C@@H]3C(=O)N(c4ccc(Cc5ccc(N6C(=O)[C@H]7C(c8ccc(C)cc8)=NO[C@H]7C6=O)cc5)cc4)C(=O)[C@H]23)cc1`, the GI50 in the assay with ACHN, in the assay with 786-0, in the assay on OVCAR-4, with COLO 205, with HOP-62 and in the assay with SK-MEL-5 was > 100 µM (inactive) each time. Further, the GI50 in the assay with SK-OV-3, with IGROV-1, in the assay on TK-10, in the assay with A498, with HT-29 and with HL-60 was > 100 µM (inactive) in each case. Besides, the GI50 was > 100 µM (inactive) in the assay with A549; > 100 µM (inactive) with HCC 2998; > 100 µM (inactive) in the assay with NCI-H226; greater than 100 µM in the assay on HCT-15; 79.4 µM (inactive) in the assay with SNB-75.

Regarding `C1CSCCSCCCSC2CCCCC2SC1` (stereo not given), the GI50 is > 100 µM (inactive) with 786-0; > 100 µM (inactive) in the assay with OVCAR-4; 86.3 µM (inactive) with COLO 205; > 100 µM (inactive) in the assay on T47D; > 100 µM (inactive) in the assay with HOP-62; 43.2 µM (inactive) with SK-MEL-5. The GI50 was > 100 µM (inactive) in the assay with SK-OV-3; > 100 µM (inactive) with IGROV-1; > 100 µM (inactive) with TK-10; 25.4 µM (inactive) with HT-29; 17.3 µM (inactive) with HL-60; > 100 µM (inactive) in the assay on A549. Besides, the GI50 is > 100 µM (inactive) with DU-145; 60 µM (inactive) in the assay with MDA-MB-231; > 100 µM (inactive) with HCC 2998; greater than 100 µM with HCT-15; > 100 µM (inactive) in the assay on SNB-75.

As for `Oc1ccc(Oc2cc3c(cc2Oc2ccc(O)cc2)-c2nc-3nc3[nH]c(nc4nc(nc5[nH]c(n2)c2cc(Oc6ccc(O)cc6)c(Oc6ccc(O)cc6)cc52)-c2cc(Oc5ccc(O)cc5)c(Oc5ccc(O)cc5)cc2-4)c2cc(Oc4ccc(O)cc4)c(Oc4ccc(O)cc4)cc32)cc1`, the GI50 in the assay on ACHN is > 100 µM (inactive); with 786-0, > 100 µM (inactive); in the assay on OVCAR-4 it was 35.7 µM (inactive); in the assay on COLO 205, > 100 µM (inactive); with T47D it was > 100 µM (inactive); in the assay with HOP-62, > 100 µM (inactive). In addition, the GI50 in the assay with SK-MEL-5 is 60.1 µM (inactive); in the assay on SK-OV-3 it was > 100 µM (inactive); in the assay on IGROV-1, > 100 µM (inactive); in the assay with TK-10, > 100 µM (inactive); in the assay on HT-29, > 100 µM (inactive); with A549, > 100 µM (inactive). Besides, the GI50 is 23.5 µM (inactive) in the assay on MDA-MB-231; > 100 µM (inactive) with HCC 2998; > 100 µM (inactive) in the assay on NCI-H226; greater than 100 µM with HCT-15; > 100 µM (inactive) in the assay on SNB-75.

Regarding `COC(=O)c1c(O)ccc2c1c1c(n2Cc2ccc(OC)cc2)C(=O)c2ccccc2C1=O`, the GI50 in the assay on ACHN was 2.62 µM (inactive); with 786-0, 12 µM (inactive); with OVCAR-4, 12.3 µM (inactive); with COLO 205 it was 1.84 µM (inactive); in the assay with T47D, 6.78 µM (inactive); with HOP-62 it was 16.3 µM (inactive). Besides, the GI50 is 15.6 µM (inactive) with SK-OV-3; 6.21 µM (inactive) in the assay on IGROV-1; 45.7 µM (inactive) with TK-10; 20.5 µM (inactive) with A498; 3.09 µM (inactive) in the assay with HT-29; 0.308 µM (active) in the assay on HL-60. Further, the GI50 in the assay on A549 was 4.91 µM (inactive); with DU-145, 18.2 µM (inactive); in the assay with HCC 2998, 2.97 µM (inactive); with NCI-H226, 10.4 µM (inactive); in the assay with HCT-15 it was 3.74 µM; in the assay with SNB-75 it was 15.1 µM (inactive).

In the case of `COc1cccc(-c2cc(O)c3cc(NC(C)=O)ccc3n2)c1`, the GI50 in the assay with ACHN is > 100 µM (inactive); with 786-0, 28.9 µM (inactive); with COLO 205, 22.4 µM (inactive); with HOP-62, 32.4 µM (inactive); in the assay on SK-MEL-5 it was 14.6 µM (inactive); in the assay on SK-OV-3 it was > 100 µM (inactive). Also, the GI50 in the assay on IGROV-1 was 27.2 µM (inactive); in the assay on TK-10, > 100 µM (inactive); in the assay on A498, 17 µM (inactive); in the assay on HT-29, 22 µM (inactive); with A549 it was 61.7 µM (inactive); with MDA-MB-231, 31.4 µM (inactive). In addition, the GI50 in the assay with HCC 2998 is > 100 µM (inactive); with HCT-15 it was 32 µM.

As for `COc1cc(C(=O)O[C@H]2CCC3CCC2N3C)cc(OC)c1OC` (stereo not given in full), the GI50 with ACHN, with 786-0, in the assay with OVCAR-4, in the assay on COLO 205, with HOP-62 and in the assay with SK-MEL-5 was > 100 µM (inactive) each time. Moreover, the GI50 in the assay on SK-OV-3 is > 100 µM (inactive); in the assay with TK-10, > 100 µM (inactive); in the assay with A498 it was 36.3 µM (inactive); in the assay with HT-29 it was > 100 µM (inactive); in the assay on HL-60, 63.7 µM (inactive); with A549 it was > 100 µM (inactive). Further, the GI50 with DU-145 is > 100 µM (inactive); with MDA-MB-231, > 100 µM (inactive); in the assay with HCC 2998 it was > 100 µM (inactive); with NCI-H226, > 100 µM (inactive); in the assay with HCT-15, greater than 100 µM; in the assay on SNB-75, 58.9 µM (inactive).

Turning to `Clc1ccc(COC(Cn2ccnc2)c2ccc(Cl)cc2Cl)c(Cl)c1` (stereo not given) [MICONAZOLE NITRATE], the GI50 in the assay on ACHN was 12.2 µM (inactive); in the assay on 786-0 it was 10.9 µM (inactive); in the assay on OVCAR-4 it was 11.9 µM (inactive); in the assay on T47D, 4.57 µM (inactive); in the assay with HOP-62 it was 13.2 µM (inactive); in the assay with SK-OV-3 it was 14.3 µM (inactive). The GI50 in the assay on HL-60 was 3.48 µM (inactive); in the assay on A549, 10.9 µM (inactive); with DU-145 it was 13 µM (inactive); in the assay with MDA-MB-231, 11.9 µM (inactive); in the assay with HCC 2998 it was 12.8 µM (inactive); in the assay with HCT-15, 10.2 µM.
